Laboratory results as given in publication PMC3128364 (Journal of Clinical Biochemistry and Nutrition, 2011).

Molecular target: T1, intestinal maltase
T1 construct: gene Mgam; native, crude extract of rat intestinal acetone powder (Sigma)
Assay: glucose release from maltose, glucose oxidase kit
Assay type: biochemical, Rattus norvegicus
Conditions: 37 mM maltose (70 µL), 0.1 M phosphate pH 6.9, 37 °C, 30 min

SMILES | IC50 [µM]
C[C@H]1O[C@H](O[C@H]2[C@H](O)[C@@H](O)[C@@H](O[C@H]3[C@H](O)[C@@H](O)C(O)O[C@@H]3CO)O[C@@H]2CO)[C@H](O)[C@@H](O)[C@@H]1N[C@H]1C=C(CO)[C@@H](O)[C@H](O)[C@H]1O (some centres unmarked) [Acarbose] | 2.7 ± 0.1
C[C@@H]1O[C@@H](OC[C@H]2O[C@@H](Oc3cc4c(O)cc(O)cc4[o+]c3-c3ccc(O)c(O)c3)[C@H](O)[C@@H](O)[C@@H]2O)[C@H](O)[C@H](O)[C@H]1O [C3R, cyanidin-3-rutinoside] | 2320
